The values that follow come from PubChem BioAssay (NCI).

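Assay format: 96-well plates, 48-hour exposure. TGI: total growth inhibition.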

One test relates to U251 CNS. Put plainly: NCI-60 cell line screen, 48 h.
In the case of `CCN(CCO)CC1COc2ccccc2O1` (stereo not given), the TGI was above 100 µM.
Same read-out and setting: in the case of `C/C(CC1C2CCCC1C2)=N\NC(N)=O` (stereo not given) it was above 100 µM; in that of `N#CC(C#N)=CNC(=S)c1ccncc1`, above 100 µM; in that of `C1=CC2=CC=CC3c4nc5ccc6ccccc6c5nc4C(=C1)C23` (stereo not given), above 100 µM.
Still for that read-out and setting: in the case of `O=c1cc(N=P(c2ccccc2)(c2ccccc2)c2ccccc2)n(-c2ccccc2)c(=O)n1-c1ccccc1` it was 29.2 µM; in that of `COc1ccc(C2(CC(C)O)SCCCS2)cc1` (stereo not given), above 100 µM; in that of `Clc1ccc(-c2nn3c(-c4ccncc4)nnc3s2)cc1`, 75 µM.
Same read-out and setting: in the case of `O=C1/C(=C\c2cccc(Oc3ccccc3)c2)S(=O)(=O)C(c2ccccc2)N1Cc1ccccc1` (stereo not given) it was above 100 µM; in that of `COc1ccc(C(OCC2OC(n3cc(C)c(=O)[nH]c3=O)CC2n2cc(Cn3cc(F)c(=O)[nH]c3=O)nn2)(c2ccccc2)c2ccccc2)cc1` (stereo not given), 21.2 µM.
`Cc1ccccc1C(O)(c1nccn1C)c1nccn1C`: the TGI was above 100 µM.
Same read-out and setting: next, `C=CCn1c(=O)ccn(COCCO)c1=O`: above 100 µM; `Oc1ccccc1/C=N/c1nc2cc3sc(/N=C/c4ccccc4O)nc3cc2s1`: above 100 µM.
In turn, `CCCCC1c2c([nH]c3ccccc23)C2C(=O)N(c3ccc(OC)cc3)C(=O)C2C1CCC` (stereo not given) gave a TGI above 10 µM.
Still for that read-out and setting: in the case of `CCN(CC)CCOc1ccc(N2C(=O)c3cc(OC)c(OC)cc3C2=O)cc1` it was above 100 µM; in that of `C(=N\NC1=NCCCN1)/c1ccc2ccccc2c1`, 19.8 µM; in that of `O=C(N=Nc1cc(Cl)ccc1Cl)NNc1cc(Cl)ccc1Cl`, 31.3 µM.
In the case of `COc1ccc(C#CC(=O)O)c(OC)c1`, the TGI is above 100 µM.
Same read-out and setting: next, `CCOC(=O)NC(=S)NN(C)C1=NCC(C)(C)S1`: above 100 µM; `O=c1c2cc3c(cc2[nH]c2ncccc12)OCO3`: above 10 µM.
Same read-out and setting: next, `Cc1csc(-c2cn(C)c3c2C(=O)C(N)=CC3=O)n1`: above 100 µM.

A further test relates to HS 578T breast. Kind of test: NCI-60 cell line screen, 48 h.
Turning to `O=P(c1ccccc1)(c1ccccc1)N1O[C@@H](c2ccccc2)C=C[C@H]1c1ccccc1`, the TGI is 44.6 µM.
On the same count and under the same terms, next, `COC(=O)[C@]12CC[C@H]3CN(C(=O)OCc4ccccc4)[C@H]([C@H]31)[C@H](c1ccco1)N2S(=O)(=O)c1ccc(C)cc1`: above 100 µM; `CCCNC(=O)CCC(C)[C@H]1CCC2C3C(C[C@H](OC(C)=O)[C@@]21C)[C@@]1(C)CCC2(C[C@H]1C[C@H]3OC(C)=O)OOC1(CCC(C)CC1)OO2` (stereo not given in full): above 100 µM.
For `CCCn1c(CN(Cc2nc3ccccc3n2CCC)Cc2nc3ccccc3n2CCC)nc2ccccc21`, the TGI was above 95.2 µM.
With `CSc1c(C#N)c(N)n2c1C(=O)N(c1ccccc1)C2=S`, the TGI was determined as 80.7 µM.
The same measure, in the same setting: in the case of `NNC(=O)c1ccc[n+](CCc2ccccc2)c1` it was above 100 µM; in that of `COc1cc(NS(C)(=O)=O)ccc1N1Cc2cnc3ccc4[nH]c(C)cc1c4c23`, above 100 µM; in that of `C=C[C@@H]1C(CO)=CCC2[C@H]1CCC1C(C)(C)C(=O)CC[C@]21C` (stereo not given in full), above 100 µM.
Regarding `COc1ccc2cc3c4cc5c(cc4cc[n+]3cc2c1OC)OCO5`, the TGI came to 31.3 µM.
The same measure, in the same setting: in the case of `CCN(CCO)CC1COc2ccccc2O1` (stereo not given) it was above 100 µM.
On the same count and under the same terms, next, `C/C(CC1C2CCCC1C2)=N\NC(N)=O` (stereo not given): above 100 µM; `N#CC(C#N)=CNC(=S)c1ccncc1`: above 100 µM; `C1=CC2=CC=CC3c4nc5ccc6ccccc6c5nc4C(=C1)C23` (stereo not given): above 100 µM.
On the same count and under the same terms, in the case of `O=c1cc(N=P(c2ccccc2)(c2ccccc2)c2ccccc2)n(-c2ccccc2)c(=O)n1-c1ccccc1` it was 58 µM; in that of `O=C(NCCCN(CCCCN(CCCNC(=O)C(F)(F)F)Cc1ccccc1)Cc1ccccc1)C(F)(F)F`, 31.4 µM.
For `COc1ccc(C2(CC(C)O)SCCCS2)cc1` (stereo not given), the TGI is above 100 µM.
Consider `Clc1ccc(-c2nn3c(-c4ccncc4)nnc3s2)cc1`, for which the TGI was above 100 µM.
Still for that read-out and setting: in the case of `O=C1/C(=C\c2cccc(Oc3ccccc3)c2)S(=O)(=O)C(c2ccccc2)N1Cc1ccccc1` (stereo not given) it was 40.5 µM.
On the same count and under the same terms, in the case of `COc1ccc(C(OCC2OC(n3cc(C)c(=O)[nH]c3=O)CC2n2cc(Cn3cc(F)c(=O)[nH]c3=O)nn2)(c2ccccc2)c2ccccc2)cc1` (stereo not given) it was above 100 µM.
On the same count and under the same terms, next, `Cc1ccccc1C(O)(c1nccn1C)c1nccn1C`: above 100 µM; `C=CCn1c(=O)ccn(COCCO)c1=O`: above 100 µM; `Oc1ccccc1/C=N/c1nc2cc3sc(/N=C/c4ccccc4O)nc3cc2s1`: above 89 µM.
For the molecule `CCCCC1c2c([nH]c3ccccc23)C2C(=O)N(c3ccc(OC)cc3)C(=O)C2C1CCC` (stereo not given), the TGI amounted to 4.81 µM.
For the molecule `CCN(CC)CCOc1ccc(N2C(=O)c3cc(OC)c(OC)cc3C2=O)cc1`, the TGI is above 100 µM.
As to `C(=N\NC1=NCCCN1)/c1ccc2ccccc2c1`, the TGI was determined as 41.3 µM.
The same measure, in the same setting: in the case of `O=C(N=Nc1cc(Cl)ccc1Cl)NNc1cc(Cl)ccc1Cl` it was 52.6 µM; in that of `COc1ccc(C#CC(=O)O)c(OC)c1`, above 100 µM; in that of `CCOC(=O)NC(=S)NN(C)C1=NCC(C)(C)S1`, above 100 µM.
Same read-out and setting: next, `O=c1c2cc3c(cc2[nH]c2ncccc12)OCO3`: above 10 µM; `Cc1csc(-c2cn(C)c3c2C(=O)C(N)=CC3=O)n1`: above 80.2 µM.

The next test relates to MDA-N. Put plainly: NCI-60 cell line screen, 48 h.
For the molecule `O=P(c1ccccc1)(c1ccccc1)N1O[C@@H](c2ccccc2)C=C[C@H]1c1ccccc1`, the TGI was found to be 12.7 µM.
Still for that read-out and setting: next, `COC(=O)[C@]12CC[C@H]3CN(C(=O)OCc4ccccc4)[C@H]([C@H]31)[C@H](c1ccco1)N2S(=O)(=O)c1ccc(C)cc1`: 50.4 µM; `CCCNC(=O)CCC(C)[C@H]1CCC2C3C(C[C@H](OC(C)=O)[C@@]21C)[C@@]1(C)CCC2(C[C@H]1C[C@H]3OC(C)=O)OOC1(CCC(C)CC1)OO2` (stereo not given in full): 28.6 µM.
`CCCn1c(CN(Cc2nc3ccccc3n2CCC)Cc2nc3ccccc3n2CCC)nc2ccccc21` gave a TGI of 25.1 µM.
Same read-out and setting: in the case of `CSc1c(C#N)c(N)n2c1C(=O)N(c1ccccc1)C2=S` it was above 100 µM; in that of `NNC(=O)c1ccc[n+](CCc2ccccc2)c1`, above 100 µM; in that of `COc1cc(NS(C)(=O)=O)ccc1N1Cc2cnc3ccc4[nH]c(C)cc1c4c23`, 47.7 µM.
On the same count and under the same terms, next, `C=C[C@@H]1C(CO)=CCC2[C@H]1CCC1C(C)(C)C(=O)CC[C@]21C` (stereo not given in full): above 100 µM.
Still for that read-out and setting: next, `COc1ccc2cc3c4cc5c(cc4cc[n+]3cc2c1OC)OCO5`: 28.5 µM.
The molecule `CCN(CCO)CC1COc2ccccc2O1` (stereo not given) showed a TGI above 100 µM.
The same measure, in the same setting: in the case of `C/C(CC1C2CCCC1C2)=N\NC(N)=O` (stereo not given) it was above 100 µM.
In turn, `N#CC(C#N)=CNC(=S)c1ccncc1` gave a TGI above 100 µM.
Still for that read-out and setting: next, `C1=CC2=CC=CC3c4nc5ccc6ccccc6c5nc4C(=C1)C23` (stereo not given): above 100 µM; `O=c1cc(N=P(c2ccccc2)(c2ccccc2)c2ccccc2)n(-c2ccccc2)c(=O)n1-c1ccccc1`: 43.7 µM.
On the same count and under the same terms, in the case of `O=C(NCCCN(CCCCN(CCCNC(=O)C(F)(F)F)Cc1ccccc1)Cc1ccccc1)C(F)(F)F` it was 29.1 µM.
